Laboratory results taken from paper PMC11959965 (Acta Pharmaceutica Sinica. B, 2024).
“Also recorded” adds a separate entry of the source.

Tests used:
TSPO [1] = target: T1, TSPO (Rattus norvegicus, UniProt P16257); test: In vitro autoradiography on rat brain slices; type: binding; settings: sham rat brain slices; PK11195 14.17 μmol/L, [19F]F-TFQC 12.91 μmol/L; 14.5 nmol/L [18F]F-TFQC; P < 0.001
TSPO [2] = settings: read-out: human U87MG Ki; cited from earlier work
TSPO [3] = target: T1, TSPO; test: Micro PET/CT imaging in KA-induced epileptic rats; type: in vivo, SD rats; settings: 2 mg/kg i.v. 10 min prior to [18F]F-TFQC, P < 0.05

T1 sequence (P16257 whole entry): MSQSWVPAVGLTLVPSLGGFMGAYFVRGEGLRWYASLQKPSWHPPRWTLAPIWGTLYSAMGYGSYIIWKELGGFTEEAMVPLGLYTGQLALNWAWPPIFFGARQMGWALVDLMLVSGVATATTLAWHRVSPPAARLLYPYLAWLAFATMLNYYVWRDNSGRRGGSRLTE

Compound	blocking of [18F]F-TFQC autoradiography signals (TSPO [1])	Ki (TSPO [2]) [nM]	blocking of [18F]F-TFQC radioactivity in the right hippocampus (TSPO [3])
CCC(C)N(C)C(=O)c1cc2ccccc2c(-c2ccccc2Cl)n1 (stereo not shown) [PK11195, reference compound]	disappeared; also recorded: blocked		
CC[C@@H](C)N(C)C(=O)c1nc(-c2cccc(C(F)(F)F)c2)c2ccccc2n1 [[^19F]F-TFQC, N-((2R)-but-2-yl)-N-methyl-4-(3-(trifluoromethyl)phenyl)quinazoline-2-carboxamide]	disappeared; also recorded: blocked	1.19	blocked
